Assay results taken from article PMC9167803 (Acta Pharmaceutica Sinica. B, 2022).

Target: SARS-CoV-2 RBD (Severe acute respiratory syndrome coronavirus 2, UniProt P0DTC2)
Assay: biochemical
Assay type: binding

O=c1c(O)c(-c2ccc(O)c(O)c2)oc2cc(O)cc(O)c12 [compound 4, quercetin]
Kd: 75.6 µM
